{"source": "patent US11241031B2", "about": "“Rebaudioside A and stevioside with improved solubilities” (SWEET GREEN FIELDS USA, LLC, priority 2014, dated 2022)", "key": {"[1]": {"test": "Taste profile (0-5 scale): different salt conditions (Example 11)", "parameters": "species or system human", "conditions": "control as named at the place", "experimental": "To evaluate the effect of different salt conditions on the resulting taste profiles relative to a control sample (i.e., 059 containing no salt), raw materials were mixed with pure water as indicated in Tables 28-31 to obtain the aqueous solutions as indicated. Taste profiles were determined as described above in Examples 9 and 10."}, "[2]": {"test": "Double-blind Flash sensory analysis of hydrolyzed D-glucose on RA/RB and RA97", "parameters": "species or system human; scale not given here", "conditions": "about 300 ppm in distilled H2O, A = 9.6 ppm, B = 4.8 ppm reacted glucose", "experimental": "Experiment 2: Testing the Sensory Effects of Hydrolyzed D-glucose on RA/RB and RA97\n1. To replicate the composition of a dried RA/RB hydrolyte treated with 0.625 mL of reagent, 5 g of RA/RB using a 61:39 ratio of RA97:RB was prepared, making sure to mix the sample thoroughly to ensure homogenization. (3.05 g RA97+1.95 g RB=5 g RA/RB blend). […] HPLC was used to confirm replication.\n2. The amount of liquid D-glucose from each vial to be equivalent to 0.96 mg D-glucose from vial A/0.48 mg reacted D-glucose from vial B (representing the reaction product from use of 300 ppm of Stevia reacted with the highest and mid-level amount of 20% NaOH (0.625 mL and 0.3215 mL respectively) would be:\n3. The following solution sets were created:\ni. 299.04 mg RA/RB blend+668.5µL D-Glucose solution vial A+distilled H2O to a final volume of 1,000 mL (299.04 ppm RA/RB+9.6 ppm reacted glucose).\nii. 299.52 mg RA/RB blend+668.5µL D-Glucose solution vial B+distilled H2O to a final volume of 1,000 mL (299.52 ppm RA/RB+4.8 ppm reacted glucose).\niii. 300 mg RA/RB blend+distilled H2O to a final volume of 1,000 mL (300 ppm RA/RB).\ni. 299.04 mg RA97+668.5µL D-Glucose solution vial A+distilled H2O to a final volume of 1,000 mL (299.04 ppm RA97+9.6 ppm reacted glucose).\nii. 299.52 mg RA97+668.5µL D-Glucose solution vial B+distilled H2O to a final volume of 1,000 mL ([…]+4.8 ppm reacted glucose).\niii. 300 mg RA97+distilled H2O to a final volume of 1,000 mL (300 ppm RA97).\nEach set was tasted using double-blind Flash sensory analysis (number of analysts=2)."}, "[3]": {"conditions": "cited from earlier work"}, "[4]": {"test": "Taste profile (0-5 scale): adding additional steviol glycosides (Example 12)", "parameters": "species or system human", "conditions": "added SG at 1.9 wt %; control without any added SGs", "experimental": "To evaluate the effect of adding additional SGs on taste profiles relative to a control sample, raw materials were mixed with pure water as indicated in Table 32 to obtain the aqueous solutions as indicated. Taste profiles were determined as described above in Examples 9 and 10."}, "[5]": {"test": "Evaluation of other sweeteners and inorganic salts on the taste profile (Example 7)", "parameters": "species or system human", "conditions": "for taste profile results, potassium chloride vs sodium chloride: Test 1, salt as component of the composition", "excerpt": "Evaluation of the Effects of Other Sweeteners and Inorganic Salts on the Taste Profile of the Composition\nTest 1: Evaluation of Compositions Comprising Sodium Chloride and Potassium Chloride\nTest 2: Evaluation of Compositions Comprising Various Sweeteners"}, "[6]": {"test": "Taste profiling of sample formulations (Example 4, Test 1 and Test 2)", "parameters": "species or system human", "conditions": "Test 2; added to RA/RB solution", "experimental": "The samples in lines 2, 4, and 8 of FIG. 1 (0.0625, 0.25, and 0.5625 20% NaOH added) were prepared by mixing raw materials and then formulated in to solutions.\nMixed product: prepared by simply mixing raw materials according to the ratio of Lot #15-0100."}}, "data": [{"molecule": "[Ca+2].[Cl-].[Cl-]", "note": "[calcium chloride]", "values": [{"measurement": "taste profile relative to the control sample", "setting": "[1]", "value": "not significantly affected"}]}, {"molecule": "C=C1C[C@@]23CC[C@H]4[C@@](C)(CCC[C@@]4(C)C(=O)O[C@@H]4O[C@H](CO)[C@@H](O)[C@H](O)[C@H]4O)[C@@H]2CC[C@]1(O[C@@H]1O[C@H](CO)[C@@H](O)[C@H](O[C@@H]2O[C@H](CO)[C@@H](O)[C@H](O)[C@H]2O)[C@H]1O[C@@H]1O[C@H](CO)[C@@H](O)[C@H](O)[C@H]1O)C3", "note": "[RA97, Rebaudioside A]", "values": [{"measurement": "T#10 Bitter", "setting": "[2]", "value": 2.3}, {"measurement": "T#10 Linger", "setting": "[2]", "value": 5}, {"measurement": "T#10 Ov. Like", "setting": "[2]", "value": 6}, {"measurement": "T#10 Sugar Like Body", "setting": "[2]", "value": 3.2}, {"measurement": "T#10 Sweetness", "setting": "[2]", "value": 5.8}, {"measurement": "T#11 Bitter", "setting": "[2]", "value": 5}, {"measurement": "T#11 Dry", "setting": "[2]", "value": 5.9}, {"measurement": "T#11 Linger", "setting": "[2]", "value": 5}, {"measurement": "T#11 Ov. Like", "setting": "[2]", "value": 6.5}, {"measurement": "T#11 Sugar Like Body", "setting": "[2]", "value": 4.4}, {"measurement": "T#11 Sweetness", "setting": "[2]", "value": 6.8}, {"measurement": "solubility", "setting": "[3]; in water at 25° C.", "value": 0.8, "unit": "%"}]}, {"molecule": "O=S(=O)([O-])[O-].[Mg+2]", "note": "[magnesium sulfate]", "values": [{"measurement": "taste profile relative to the control sample", "setting": "[1]", "value": "not significantly affected"}]}, {"molecule": "rebaudioside C [Reb-C]", "values": [{"measurement": "taste profile relative to control sample 10-1", "setting": "[4]", "value": "not significantly affected"}]}, {"molecule": "O=C(CO)[C@@H](O)[C@H](O)[C@H](O)CO", "note": "[fructose]", "values": [{"measurement": "effect of sweetener on taste profile relative to glucose", "setting": "[5]; Test 2, sweetener as component of the composition", "value": "slightly lower than glucose"}]}, {"molecule": "C=C1C[C@@]23CC[C@H]4[C@@](C)(CCC[C@@]4(C)C(=O)O[C@@H]4O[C@H](CO)[C@@H](O)[C@H](O)[C@H]4O)[C@@H]2CC[C@]1(O[C@@H]1O[C@H](CO)[C@@H](O)[C@H](O)[C@H]1O[C@@H]1O[C@H](CO)[C@@H](O)[C@H](O)[C@H]1O)C3", "note": "[stevioside]", "values": [{"measurement": "taste profile relative to control sample 10-1", "setting": "[4]", "value": "not significantly affected"}, {"measurement": "solubility / dissolution (in words)", "setting": "[3]; powder in water at 25° C.", "value": "very low solubility"}]}, {"molecule": "[Cl-].[K+]", "note": "[potassium chloride]", "values": [{"measurement": "taste profile results, potassium chloride vs sodium chloride", "setting": "[5]", "value": "Substantially same results"}]}, {"molecule": "O=C[C@H](O)[C@@H](O)[C@H](O)[C@H](O)CO", "note": "[glucose]", "values": [{"measurement": "effect of added component on the taste profile", "setting": "[6]", "value": "improved the “sugar like” profile"}]}, {"molecule": "O=C([O-])[O-].[K+].[K+]", "note": "[potassium carbonate]", "values": [{"measurement": "taste profile relative to the control sample", "setting": "[1]", "value": "not significantly affected"}]}, {"molecule": "C=C1C[C@@]23CC[C@H]4[C@@](C)(CCC[C@@]4(C)C(=O)O)[C@@H]2CC[C@]1(O[C@@H]1O[C@H](CO)[C@@H](O)[C@H](O)[C@H]1O[C@@H]1O[C@H](CO)[C@@H](O)[C@H](O)[C@H]1O)C3", "note": "[steviolbioside]", "values": [{"measurement": "taste profile relative to control sample 10-1", "setting": "[4]", "value": "not significantly affected"}]}, {"molecule": "[Cl-].[Na+]", "note": "[sodium chloride]", "values": [{"measurement": "effect of added component on the taste profile", "setting": "[6]", "value": "improved the “aftertaste” profile"}, {"measurement": "taste profile results, potassium chloride vs sodium chloride", "setting": "[5]", "value": "Substantially same results"}]}]}
